Four compounds from ChEMBL document CHEMBL4014316, “Amphiphilic Guanidinocalixarenes Inhibit Lipopolysaccharide (LPS)- and Lectin-Stimulated Toll-like Receptor 4 (TLR4) Signaling” (J Med Chem, 2017) can be followed below.

Molecules are shown by their SMILES. pIC50: −log10 of the molar value.

Assay type in all cases: cell-based; call rule not given here
One data set addresses Toll-like receptor 4 (Homo sapiens, UniProt O00206). Nature of the data set: Activation of TLR4 signaling (unknown origin) expressed in HEK-Blue cells after 30 mins by secreted embryonic alkaline phosphatase reporter gene assay. The note with it: 0.5 h. On the technique in general: A reporter such as luciferase makes a cellular process visible.
Data set [1] in a line: Cytotoxicity against HEK-Blue cells assessed as reduction in cell viability up to 10 uM measured after overnight incubation by MTT assay. The conditions noted are these: human. In general terms: Formazan colour is commonly taken as a measure of viable cells.
The target in data set [2] is Toll-like receptor 4/MD-2/CD14 (Homo sapiens) (UniProt O00206+Q9Y6Y9+P08571). Put plainly: (§1) Binding affinity to CD14/MD2 (unknown origin) expressed in HEK-Blue cells co-expressing TLR4 assessed as inhibition of LPS-induced TLR4 signaling preincubated for 30 mins followed by LPS stimulation measured after overnight incubation by secreted embryonic alkaline phosphatase reporter gene assay.

Data set [3] concerns the target Toll-like receptor 4/MD-2/CD14 (Homo sapiens, UniProt O00206+P08571+Q9Y6Y9). Described as §1.

Toll-like receptor 4, sequence (O00206 whole entry): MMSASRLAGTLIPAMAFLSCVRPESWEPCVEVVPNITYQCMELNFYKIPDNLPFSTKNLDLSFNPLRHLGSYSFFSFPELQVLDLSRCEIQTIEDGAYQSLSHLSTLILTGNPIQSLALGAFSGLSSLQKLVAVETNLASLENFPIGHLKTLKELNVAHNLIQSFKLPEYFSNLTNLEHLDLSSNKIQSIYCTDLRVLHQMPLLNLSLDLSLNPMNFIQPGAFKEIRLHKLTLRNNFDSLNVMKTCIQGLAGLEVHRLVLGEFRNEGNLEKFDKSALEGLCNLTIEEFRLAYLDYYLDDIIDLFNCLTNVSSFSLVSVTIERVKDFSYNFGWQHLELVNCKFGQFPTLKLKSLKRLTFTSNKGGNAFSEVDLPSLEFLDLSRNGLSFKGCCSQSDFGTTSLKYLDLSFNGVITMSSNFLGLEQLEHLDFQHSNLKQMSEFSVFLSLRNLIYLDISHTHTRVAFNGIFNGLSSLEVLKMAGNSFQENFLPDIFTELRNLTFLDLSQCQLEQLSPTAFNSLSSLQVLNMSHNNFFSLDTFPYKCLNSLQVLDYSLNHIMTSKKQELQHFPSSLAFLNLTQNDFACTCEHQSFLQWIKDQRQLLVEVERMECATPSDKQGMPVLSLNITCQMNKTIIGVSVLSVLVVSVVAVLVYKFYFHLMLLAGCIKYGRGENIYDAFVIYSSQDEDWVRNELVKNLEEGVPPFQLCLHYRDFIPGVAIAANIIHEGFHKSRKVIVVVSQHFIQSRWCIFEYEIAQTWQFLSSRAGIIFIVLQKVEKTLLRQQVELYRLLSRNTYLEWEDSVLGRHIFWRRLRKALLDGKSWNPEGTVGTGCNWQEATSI
Toll-like receptor 4/MD-2/CD14, sequence (O00206 whole entry): as above
Toll-like receptor 4/MD-2/CD14, sequence (Q9Y6Y9 whole entry): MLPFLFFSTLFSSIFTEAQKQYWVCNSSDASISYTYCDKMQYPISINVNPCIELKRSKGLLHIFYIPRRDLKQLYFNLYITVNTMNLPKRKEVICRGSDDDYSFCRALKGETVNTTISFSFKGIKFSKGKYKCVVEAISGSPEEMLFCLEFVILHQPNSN
Toll-like receptor 4/MD-2/CD14, sequence (P08571 whole entry): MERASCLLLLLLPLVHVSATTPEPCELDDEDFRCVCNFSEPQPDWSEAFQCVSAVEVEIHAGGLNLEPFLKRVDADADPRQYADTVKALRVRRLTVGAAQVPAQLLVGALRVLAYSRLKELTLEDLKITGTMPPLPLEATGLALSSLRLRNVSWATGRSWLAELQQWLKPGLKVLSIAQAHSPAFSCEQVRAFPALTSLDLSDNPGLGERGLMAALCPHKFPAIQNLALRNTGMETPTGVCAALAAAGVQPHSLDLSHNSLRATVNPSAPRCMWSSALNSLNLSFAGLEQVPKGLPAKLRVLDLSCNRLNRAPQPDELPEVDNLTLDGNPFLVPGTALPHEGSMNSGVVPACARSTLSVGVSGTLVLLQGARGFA

As to `CCCCCCOc1c2cc(NC(=N)N)cc1Cc1cc(NC(=N)N)cc(c1OCCCCCC)Cc1cc(NC(=N)N)cc(c1OCCCCCC)Cc1cc(NC(=N)N)cc(c1OCCCCCC)C2.Cl.Cl.Cl.Cl`, the Activity entry on Toll-like receptor 4 is “Not Active”; in data set [1], “Non-Toxic”.
In the case of `CCCOc1c2cc(NC(=N)N)cc1Cc1cc(NC(=N)N)cc(c1OCCC)Cc1cc(NC(=N)N)cc(c1OCCC)Cc1cc(NC(=N)N)cc(c1OCCC)C2.Cl.Cl.Cl.Cl`, the Activity result is given as “Not Active” on Toll-like receptor 4 and “Non-Toxic” in data set [1].
On to `CC(C)(C)c1cc2c(OCCCNC(=N)N)c(c1)Cc1cc(C(C)(C)C)cc(c1OCCCNC(=N)N)Cc1cc(C(C)(C)C)cc(c1OCCCNC(=N)N)Cc1cc(C(C)(C)C)cc(c1OCCCNC(=N)N)C2.Cl.Cl.Cl.Cl`, for which the inhibition entry in data set [2] was “Dose-dependent effect”. In addition, the negative-log IC50 (pIC50) (usually the IC50 on a negative log10 scale, so that one unit is a factor of ten) in data set [3] was 5.00. For the same compound, the Activity result at Toll-like receptor 4 is listed as “Not Active”.
In the same order, the values of `CC(C)(C)c1cc2c(OCCCCNC(=N)N)c(c1)Cc1cc(C(C)(C)C)cc(c1OCCCCNC(=N)N)Cc1cc(C(C)(C)C)cc(c1OCCCCNC(=N)N)Cc1cc(C(C)(C)C)cc(c1OCCCCNC(=N)N)C2.Cl.Cl.Cl.Cl` are “Dose-dependent effect”, 6.70 and “Not Active”.
